For assay [1], the target named is T1, hP2X4R (human P2X4 receptor) (Homo sapiens, UniProt Q99571).
T1 construct: gene P2RX4; stably expressed in 1321N1 astrocytoma cells by retroviral system
T1 sequence (Q99571 1-388): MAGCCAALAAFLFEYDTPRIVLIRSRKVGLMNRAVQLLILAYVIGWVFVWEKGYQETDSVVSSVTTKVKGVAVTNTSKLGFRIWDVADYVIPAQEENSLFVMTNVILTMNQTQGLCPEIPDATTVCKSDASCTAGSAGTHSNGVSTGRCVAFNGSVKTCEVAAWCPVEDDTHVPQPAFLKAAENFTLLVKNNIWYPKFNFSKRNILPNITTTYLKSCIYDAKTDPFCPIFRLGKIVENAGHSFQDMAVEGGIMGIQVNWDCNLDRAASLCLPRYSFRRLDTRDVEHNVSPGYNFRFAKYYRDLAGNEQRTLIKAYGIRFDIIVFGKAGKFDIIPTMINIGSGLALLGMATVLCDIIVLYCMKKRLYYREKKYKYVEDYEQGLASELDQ
As to the kind of experiment: calcium influx (Fluo-4), […]1 cells. In kind it is cell-based.

The target of assay [2] is T2, hP2X2R (human P2X2 receptor) (Homo sapiens, UniProt Q9UBL9).
T2 construct: gene P2RX2; stably expressed in 1321N1 astrocytoma cells by retroviral system
T2 sequence (Q9UBL9 1-471): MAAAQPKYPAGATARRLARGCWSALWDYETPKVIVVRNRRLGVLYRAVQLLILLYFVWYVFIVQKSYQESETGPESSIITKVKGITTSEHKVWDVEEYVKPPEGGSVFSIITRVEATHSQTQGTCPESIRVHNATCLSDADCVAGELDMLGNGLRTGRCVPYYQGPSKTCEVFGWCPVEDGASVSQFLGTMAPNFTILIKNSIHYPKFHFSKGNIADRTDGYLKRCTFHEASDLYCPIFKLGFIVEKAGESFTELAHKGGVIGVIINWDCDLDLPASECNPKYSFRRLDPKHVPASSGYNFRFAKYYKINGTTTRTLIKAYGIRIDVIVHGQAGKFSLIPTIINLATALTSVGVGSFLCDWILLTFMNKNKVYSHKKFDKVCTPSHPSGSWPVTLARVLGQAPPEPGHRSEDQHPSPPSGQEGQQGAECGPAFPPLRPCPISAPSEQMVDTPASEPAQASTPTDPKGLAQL
As to the kind of experiment: calcium influx (Fluo-4), […]1 cells. It is filed as cell-based.

For assay [3], the target named is T3, hP2X7R (full-length wild-type human P2X7 receptor) (Homo sapiens, UniProt Q99572).
T3 construct: gene P2RX7; full-length wild-type homotrimer; structures: C-terminal GFP, 3C site and His tag, digested with HRV 3C, from HEK293 / HEK293 GNTI- cells; BLI: biotinylated receptor; TEVC: untagged in Xenopus oocytes; calcium influx: 1321N1 cells; ethidium uptake: HEK293 cells
T3 sequence (Q99572 1-595): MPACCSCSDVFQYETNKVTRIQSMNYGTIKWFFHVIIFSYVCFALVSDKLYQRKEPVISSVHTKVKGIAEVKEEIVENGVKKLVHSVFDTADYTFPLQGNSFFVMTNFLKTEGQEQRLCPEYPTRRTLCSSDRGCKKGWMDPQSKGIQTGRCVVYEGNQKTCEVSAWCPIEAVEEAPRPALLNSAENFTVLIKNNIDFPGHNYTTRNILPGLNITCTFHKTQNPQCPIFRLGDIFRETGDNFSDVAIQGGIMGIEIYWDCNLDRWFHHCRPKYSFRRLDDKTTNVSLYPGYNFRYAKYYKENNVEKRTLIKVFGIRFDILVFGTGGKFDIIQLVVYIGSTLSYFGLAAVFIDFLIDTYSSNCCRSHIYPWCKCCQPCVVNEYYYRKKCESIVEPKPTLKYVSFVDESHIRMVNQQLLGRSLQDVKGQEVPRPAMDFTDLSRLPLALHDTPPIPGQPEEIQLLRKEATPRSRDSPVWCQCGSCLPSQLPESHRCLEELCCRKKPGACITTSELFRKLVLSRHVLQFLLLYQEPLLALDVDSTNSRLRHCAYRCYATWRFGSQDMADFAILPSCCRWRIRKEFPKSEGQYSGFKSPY
As to the kind of experiment: calcium influx (Fluo-4), […]1 cells. In kind it is cell-based. To be noted: agonist BzATP at EC80; allosteric antagonist, classical allosteric site; pH 7.4.

Assay [4] concerns the target T4, rP2X7R (full-length wild-type rat P2X7 receptor) (Rattus norvegicus, UniProt Q64663).
T4 construct: gene P2rx7; full-length wild-type homotrimer; untagged in Xenopus oocytes for TEVC
T4 sequence (Q64663 1-595): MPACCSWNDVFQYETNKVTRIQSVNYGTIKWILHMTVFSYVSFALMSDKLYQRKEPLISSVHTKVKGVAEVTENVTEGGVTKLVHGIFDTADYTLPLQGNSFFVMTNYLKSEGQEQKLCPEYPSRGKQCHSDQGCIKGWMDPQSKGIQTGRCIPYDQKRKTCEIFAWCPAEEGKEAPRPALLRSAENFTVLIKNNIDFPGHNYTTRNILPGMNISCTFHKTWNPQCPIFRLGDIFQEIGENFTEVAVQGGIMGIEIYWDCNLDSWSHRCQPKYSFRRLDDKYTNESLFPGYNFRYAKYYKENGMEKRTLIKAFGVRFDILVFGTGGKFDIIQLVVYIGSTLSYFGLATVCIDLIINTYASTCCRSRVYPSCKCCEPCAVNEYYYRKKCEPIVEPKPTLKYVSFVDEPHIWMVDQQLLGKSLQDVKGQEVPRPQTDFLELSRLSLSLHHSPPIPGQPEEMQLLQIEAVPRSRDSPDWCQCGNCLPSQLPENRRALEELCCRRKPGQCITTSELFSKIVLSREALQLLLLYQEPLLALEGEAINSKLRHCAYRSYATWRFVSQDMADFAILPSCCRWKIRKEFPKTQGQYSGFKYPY
Nature of the assay: calcium influx (Fluo-4), […]1 cells. It is filed as cell-based.

In assay [5] the target is T5, mP2X7R (full-length wild-type mouse P2X7 receptor) (Mus musculus, UniProt Q9Z1M0).
T5 construct: gene P2rx7; full-length wild-type homotrimer; untagged in Xenopus oocytes for TEVC
T5 sequence (Q9Z1M0 1-595): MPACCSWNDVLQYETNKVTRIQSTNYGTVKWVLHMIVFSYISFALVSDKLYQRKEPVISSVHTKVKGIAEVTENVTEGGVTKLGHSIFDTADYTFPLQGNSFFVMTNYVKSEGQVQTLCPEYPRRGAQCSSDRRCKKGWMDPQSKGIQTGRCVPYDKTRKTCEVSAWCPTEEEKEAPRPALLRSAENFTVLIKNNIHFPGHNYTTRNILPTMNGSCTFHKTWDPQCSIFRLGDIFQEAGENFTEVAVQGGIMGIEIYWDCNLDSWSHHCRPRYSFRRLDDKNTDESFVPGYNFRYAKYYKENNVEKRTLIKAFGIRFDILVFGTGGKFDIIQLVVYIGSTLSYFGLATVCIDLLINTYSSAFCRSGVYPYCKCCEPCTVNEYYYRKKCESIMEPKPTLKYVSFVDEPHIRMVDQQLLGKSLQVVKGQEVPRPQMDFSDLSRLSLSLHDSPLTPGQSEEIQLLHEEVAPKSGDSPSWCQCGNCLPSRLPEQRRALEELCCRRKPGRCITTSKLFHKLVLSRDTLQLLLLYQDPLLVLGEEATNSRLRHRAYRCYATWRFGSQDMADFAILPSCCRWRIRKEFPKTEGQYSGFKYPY
As to the kind of experiment: calcium influx (Fluo-4), […]1 cells. In kind it is cell-based.

The target in assay [6] is T6, hP2X3R (human P2X3 receptor, S15V mutant) (Homo sapiens, UniProt P56373, S15V).
T6 construct: gene P2RX3; S15V mutant to prevent fast desensitization; stably expressed in 1321N1 astrocytoma cells by retroviral system
T6 sequence (P56373 1-397 S15V): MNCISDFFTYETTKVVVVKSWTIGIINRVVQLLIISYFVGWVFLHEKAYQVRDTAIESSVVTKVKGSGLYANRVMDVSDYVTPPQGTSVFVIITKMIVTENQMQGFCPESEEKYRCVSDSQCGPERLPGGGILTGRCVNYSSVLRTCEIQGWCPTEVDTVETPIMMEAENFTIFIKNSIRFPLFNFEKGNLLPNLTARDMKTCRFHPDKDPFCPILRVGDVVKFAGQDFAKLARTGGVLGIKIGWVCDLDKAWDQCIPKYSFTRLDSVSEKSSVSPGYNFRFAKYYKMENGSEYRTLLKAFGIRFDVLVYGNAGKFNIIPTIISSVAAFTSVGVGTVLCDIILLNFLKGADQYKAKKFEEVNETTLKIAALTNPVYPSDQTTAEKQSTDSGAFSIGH
As to the kind of experiment: calcium influx (Calcium […]), […]1 cells. It is filed as cell-based.

Assay [7] has as its target T3, hP2X7R (full-length wild-type human P2X7 receptor). Nature of the assay: ethidium bromide accumulation, HEK293 cells expressing hP2X7R. In kind it is cell-based. An excerpt:
ethidium bromide accumulation, HEK293 cells expressing hP2X7R on hP2X7R (full-length wild-type human P2X7 receptor)

The target is the same in assay [8]. Nature of the assay: bio-layer interferometry, kinetic […] fit. It is filed as binding. On the technique in general: In BLI a coated tip is dipped into the sample, and binding shifts an interference pattern.
In assay [9] the target is T4, rP2X7R (full-length wild-type rat P2X7 receptor). As to the kind of experiment: two-electrode voltage clamp, Xenopus oocytes. In kind it is cell-based. For orientation: Two-electrode voltage clamp holds a large cell at a set potential and records current.
Assay [10] has as its target T5, mP2X7R (full-length wild-type mouse P2X7 receptor). As to the kind of experiment: two-electrode voltage clamp, Xenopus oocytes. In kind it is cell-based.
For assay [11], the target named is T3, hP2X7R (full-length wild-type human P2X7 receptor). Nature of the assay: two-electrode voltage clamp, Xenopus oocytes. It is filed as cell-based.

Where two headings read alike, the source gives them in different places. Where only a bound is given, the exact number is not on record here.

As to `O=C(NNc1ccccc1Cl)C12CC3CC(CC(C3)C1)C2` [UB-ALT-P30], the inhibition at 10 µM in assay [1] turned out to be 44 ± 14%; in [2], 29 ± 7%; in assay [6], 86 ± 9%. The IC50 in assay [3] was 18 ± 8.3 nM; in [4], 120 ± 50 nM; in [5], 150 ± 27 nM.
On to `CC12CC3(C)CC(C)(C1)CC(C(=O)NNc1ccccc1Cl)(C2)C3` [UB-ALT-P37], for which, in assay [7], the IC50 was over 1000 nM.
In assay [8], `Nc1ncnc2c1ncn2[C@@H]1O[C@H](COP(=O)(O)OP(=O)(O)OP(=O)(O)O)[C@@H](O)[C@H]1O` [ATP] had a Kd of 650 ± 120 nM. In addition, the EC50 in assay [9] was found to be 34000 ± 8400 nM; in [10], 70000 ± 17000 nM; in assay [11], 89000 ± 8300 nM.
Take `O=C(NNc1ccccc1Cl)C12C3C4C5C3C1C5C42` (stereo not drawn) [UB-ALT-P38]: the IC50 in [7] was determined as 430 ± 64 nM.
Same read-out and setting: the value for `CC12CC3CC(C)(C1)CC(C(=O)NNc1ccccc1Cl)(C3)C2` [UB-ALT-P36] was 477 ± 170 nM.
Consider `CC12CC3CC1(C)C1(C)CC3(C(=O)NNc3ccccc3Cl)CC21C` [UB-MBX-46], for which the IC50 in assay [4] (agonist BzATP at EC80, pH 7.4) was found to be 40.6 ± 10.4 nM; in assay [5] (agonist BzATP at EC80, pH 7.4), 4.52 ± 0.72 nM.

In general, inhibition refers to how much of the control response was suppressed. What is called IC50 is the concentration at which inhibition is half-maximal. What is called Kd is a measure of binding affinity in units of concentration. As usually defined, the EC50 is the concentration at which the effect is half-maximal.

The values above are taken from publication doi:10.1101/2025.02.12.637899v1 (biorxiv, 2025).
